# According to patent US20130316389A1, “Method and System for Determining Characteristics of an Embryo and Uses Thereof” (University of Plymouth, priority 2010, published 2013):
# System: zebra fish (Danio rerio) embryos
# Assay: Movement pattern analysis of zebra fish embryos subjected to challenge (Example 5)
# Assay type: in vivo
# Details: 30 minutes exposure
# Method: Images of the movement of each subject embryo were recorded for a period of ten minutes. The imaging apparatus comprised a 4 megapixel monochrome camera (AVT Pike 421) operating at 15 Hz with a 1600×1200 pixel region of interest, connected to a zooming optic lens system (Keyence VHZ100R).
# This temporal tracking technique first extracts corner features from each image. Thereafter, image features are registered from frame to frame and assigned a velocity variance to each, A feature with a high velocity variance was rejected, as indicating inaccurate tracking. The remaining features were used in subsequent analysis of the movement pattern of the embryo.
# Four parameters of motion of the subject embryo were extracted from each frame of the image data and compared with the corresponding parameters in the preceding frames. The four parameters of motion were positive and negative angles of rotation, and Rho-theta angular changes to the centre of mass for the embryo. The centre of mass of the embryo was determined by determining the X and Y coordinates of every point of motion detected. The X and Y coordinates were summed to provide mean values for X and Y.
# The resulting data were analysed for spectral content using the Fast Discrete Fourier Transform (FDFT), to generate data relating to the frequency of motion of the subject embryo. […] 18 frequency bins were analysed from the FDFT analysis. […]
structure (smiles),measurement,setting,value
CCO [ethanol],movement pattern (optic flow) compared with the control embryos,"1.5% ethanol in deionised water, stage 19 and 21.5 hpf embryos, 27° C",more peaks in positive and negative rotational movement and X and Y displacement of the centre of mass
same,distinction from control embryos by ANOSIM analysis of movement patterns,"1.5% ethanol, stage 33 embryos",readily distinguished from the stage 33 control embryos
